Results on 31 molecules are retold here after patent US20140309186A1, “Metabolomics-Based Identification of Disease-Causing Agents” (Georgia Tech Research Corporation, priority 2007, published 2014).

Data set [1] has as its system Jurkat cells. Kind of data set: Growth inhibition of Jurkat cells, resazurin-based in vitro toxicology assay (TOX-8). Conditions: for activity at 100 µM: Homo sapiens, Jurkat, read-out: Jurkat cell growth as percentage of the untreated control. It is filed as cell-based, Human.
For data set [2], the system named is Jurkat cells. Conditions: literature search; cited from earlier work.
Data set [3] concerns OVCAR-3 cells. Conditions: literature; cited from earlier work.
A further data set concerns malignant erythroblasts. Conditions: literature; cited from earlier work.
Another data set has as its system RNA polymerase II. The settings on record: literature; cited from earlier work.
A further data set concerns HeLa cell. Conditions: literature; cited from earlier work.
The target of data set [4] is T1, tryptophanyl-tRNA synthetase (Homo sapiens, UniProt P23381).
T1 construct: host or cells: HeLa (cell context of the cited finding)
T1 sequence (P23381 1-471): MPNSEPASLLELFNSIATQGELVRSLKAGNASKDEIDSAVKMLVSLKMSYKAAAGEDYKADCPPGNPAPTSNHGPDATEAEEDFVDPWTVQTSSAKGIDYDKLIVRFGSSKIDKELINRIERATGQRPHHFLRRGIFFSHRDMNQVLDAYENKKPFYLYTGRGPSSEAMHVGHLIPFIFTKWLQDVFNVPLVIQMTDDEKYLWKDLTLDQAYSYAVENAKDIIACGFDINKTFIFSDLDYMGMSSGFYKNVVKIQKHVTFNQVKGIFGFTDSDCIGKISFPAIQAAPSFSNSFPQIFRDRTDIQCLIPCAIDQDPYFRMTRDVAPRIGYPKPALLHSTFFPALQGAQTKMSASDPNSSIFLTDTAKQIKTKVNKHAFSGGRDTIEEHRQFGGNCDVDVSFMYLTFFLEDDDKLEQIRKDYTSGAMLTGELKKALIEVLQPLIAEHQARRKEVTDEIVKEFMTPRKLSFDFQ
The settings on record: literature; cited from earlier work.

The test system of another data set is HT29 colon cancer cells. The settings on record: literature; cited from earlier work.
The next data set concerns the target T2, histone deacetylase 1 (Homo sapiens, UniProt Q13547).
T2 construct: host or cells: HT29 (cell context of the cited finding)
Conditions: literature; cited from earlier work.

A further data set has as its system normal T lymphocytes. Conditions: cited from earlier work.
Another data set relates to human lymphoblast cells. Kind of data set: Growth of human lymphoblast cells cultured in identical conditions. Conditions: 50 μM. Format: cell-based. As to the method: The positive association between lowered metabolite levels in Jurkat cells as predicted by CoMet and antiproliferative activity of the metabolite in that cell line is highly significant (Fisher's exact test two-tailed p-value=8.7×10^−6). Furthermore, when the effect of these metabolites on growth inhibition was tested in Jurkat and human lymphoblast cells cultured in identical conditions, a pattern of selectivity of the antiproliferative effect towards the cancer cell line became evident.

Data set [5] deals with OVCAR-3 cells. Kind of data set: Growth inhibition of OVCAR-3 cells, resazurin-based in vitro toxicology assay (TOX-8). Format: cell-based, human. The settings on record: single metabolite, 100 μM, 72 hours. On the technique in general: The colour change of resazurin is a common sign of viable cells or microbes.
The subject of the next data set is HL-60 cells. The settings on record: literature; cited from earlier work.
Setting [6] is: single metabolite, 100 μM, 72 hour treatment, control = 100%, lower = stronger inhibition.

T2 sequence (Q13547 whole entry): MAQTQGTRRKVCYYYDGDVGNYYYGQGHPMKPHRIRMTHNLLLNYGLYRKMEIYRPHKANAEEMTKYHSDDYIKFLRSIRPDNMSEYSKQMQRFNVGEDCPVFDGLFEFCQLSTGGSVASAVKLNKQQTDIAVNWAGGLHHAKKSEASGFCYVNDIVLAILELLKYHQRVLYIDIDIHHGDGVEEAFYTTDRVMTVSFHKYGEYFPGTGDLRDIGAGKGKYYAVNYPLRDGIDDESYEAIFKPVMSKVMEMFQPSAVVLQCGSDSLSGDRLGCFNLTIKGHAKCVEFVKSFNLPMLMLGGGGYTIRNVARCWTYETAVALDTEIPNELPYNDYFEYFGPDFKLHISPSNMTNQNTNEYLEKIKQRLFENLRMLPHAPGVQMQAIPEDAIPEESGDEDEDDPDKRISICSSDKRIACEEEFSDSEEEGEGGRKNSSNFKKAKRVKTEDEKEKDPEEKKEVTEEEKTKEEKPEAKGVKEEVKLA

`Cc1cc2nc3c(=O)[nH]c(=O)nc-3n(C[C@H](O)[C@H](O)[C@H](O)CO)c2cc1C` [riboflavin]: in the data set with Jurkat cells [1] (setting [6]), the activity at 100 µM was more than 70%. As for `CCCCC/C=C\C/C=C\CCCCCCCC(=O)O` [linoleic acid], the “anticancer activity in Jurkat cells known from the literature” value (“anticancer activity … from the literature” below) in the data set on Jurkat cells [2] is “active in Jurkat cells”. Consider `O=C(O)CC(O)(CC(=O)O)C(=O)O` [citric acid], for which the activity at 100 µM with Jurkat cells [1] (setting [6]) was more than 90%. For the molecule `Nc1nc2c(ncn2[C@H]2C[C@H](O)[C@@H](CO)O2)c(=O)[nH]1` [2′-deoxyguanosine], in the data set on Jurkat cells [2], the “anticancer activity … from the literature” value is listed as “active in Jurkat cells”. As to `Nc1ncnc2c1ncn2[C@H]1C[C@H](O)[C@@H](CO)O1` [2′-deoxyadenosine], in the data set on Jurkat cells [2], the “anticancer activity … from the literature” value was “active in Jurkat cells”. In the case of `Cc1cc2nc[nH]c2cc1C` [5,6-di-ethylbenzimidazole, 5,6-dimethylbenzimidazole], the activity at 100 µM with Jurkat cells [1] (setting [6]) came to 61.4%. In the case of `Cc1cn([C@H]2C[C@H](O)[C@@H](CO)O2)c(=O)[nH]c1=O` [thymidine], in the data set on Jurkat cells [2], the “anticancer activity … from the literature” value is reported as “antineoplastic agent”. Turning to `OC[C@H]1O[C@@H](n2cnc3c(O)ncnc32)C[C@@H]1O` [2′-deoxyinosine], the “anticancer activity … from the literature” value in the data set on Jurkat cells [2] is listed as “active in Jurkat cells”. On to `CC(C)(CO)[C@@H](O)C(=O)NCCC(=O)O` [pantothenic acid], for which the activity at 100 µM with Jurkat cells [1] (setting [6]) is more than 90%. As for `C=CC1=C(C)/C(=C/c2[nH]c(Cc3[nH]c(/C=C4\NC(=O)C(C)=C4C=C)c(C)c3CCC(=O)O)c(CCC(=O)O)c2C)NC1=O` [bilirubin], in the data set on Jurkat cells [1] (setting [6]), the activity at 100 µM stood at 21.3%. In the case of `COc1cc(C(O)C(=O)O)ccc1O` (stereo not drawn) [vanillylmandelic acid], the activity at 100 µM with Jurkat cells [1] (setting [6]) was more than 90%. Consider `N[C@@H](Cc1cc(I)c(Oc2ccc(O)c(I)c2)c(I)c1)C(=O)O` [3′,3,5-triiodo-L-thyronine], for which the “anticancer activity in OVCAR-3 cells previously demonstrated” value in the data set with OVCAR-3 cells [3] is on record as “anticancer activity”.

As to `C=C1/C(=C\C=C2/CCC[C@]3(C)[C@@H]([C@H](C)CCCC(C)(C)O)CC[C@@H]23)C[C@@H](O)C[C@@H]1O` [calcitriol], the “anticancer activity in OVCAR-3 cells previously demonstrated” value with OVCAR-3 cells [3] is given as “anticancer activity”. On to `Clc1cc2nc[nH]c2cc1Cl` [5,6-dichlorobenzimidazole], for which the “effect on malignant erythroblasts” value in the data set with malignant erythroblasts is listed as “induces differentiation”. Moreover, in the data set with RNA polymerase II, the “effect on RNA polymerase II” value is “inhibiting”.

For the molecule `NCCc1c[nH]c2ccccc12` [tryptamine], the “effect on HeLa cell growth” value with HeLa cell is “effective inhibitor”. Also, in data set [4], the “effect on tryptophanyl-tRNA synthetase” value is “competitive inhibition”. As for `Nc1nc2ncc(CNc3ccc(C(=O)N[C@@H](CCC(=O)O)C(=O)O)cc3)nc2c(=O)[nH]1` [folic acid], in the data set on Jurkat cells [1] (setting [6]), the activity at 100 µM is more than 90%. Consider `COc1ccc2[nH]cc(CCNC(C)=O)c2c1` [melatonin], for which the “anticancer activity … from the literature” value in the data set on Jurkat cells [2] is “active in Jurkat cells”. For `CC(C)CCC[C@@H](C)[C@H]1CC[C@H]2[C@@H]3CC=C4C[C@@H](O)CC[C@]4(C)[C@H]3CC[C@]12C` [cholesterol], the activity at 100 µM in the data set with Jurkat cells [1] (setting [6]) was more than 90%. Regarding `CCCCCCCCCC(O)CCCCCCCC(=O)O` (stereo not drawn) [9-hydroxystearic acid], in the data set with HT29 colon cancer cells, the “effect on HT29 colon cancer cells” value is recorded as “arrests HT29 colon cancer cells in G0/G1 phase”. For the same molecule, the “effect on histone deacetylase 1” value on histone deacetylase 1 was “inhibition”.

Turning to `CCCCCCCCCCCCCCCCC(O)C(=O)O` (stereo not drawn) [α-hydroxystearic acid], the activity at 100 µM in the data set on Jurkat cells [1] (setting [6]) turned out to be 67.8%.

As to `CCCCC[C@H](O)/C=C/[C@H]1C(=O)C[C@H](O)[C@@H]1C/C=C\CCCC(=O)O` [prostaglandin D2], in the data set on Jurkat cells [2], the “anticancer activity … from the literature” value was “induces apoptosis”. In the data set on normal T lymphocytes, the “effect on viability of normal T lymphocytes” value is listed as “without inhibiting the viability”. For the molecule sphingolipid GD3, in the data set with Jurkat cells [2], the “anticancer activity … from the literature” value is recorded as “active in Jurkat cells”. `C[C@]12CC[C@H]3[C@@H](CCC4=CC(=O)CC[C@@]43C)[C@@H]1CC[C@@H]2O` [testosterone]: the “anticancer activity … from the literature” value with Jurkat cells [2] is recorded as “active in Jurkat cells”. In the case of `CC(=O)CO` [hydroxyacetone], the activity at 100 µM with Jurkat cells [1] (setting [6]) is more than 70%. Take `C[C@]12CC[C@H](O)CC1=CC[C@@H]1[C@@H]2CC[C@]2(C)C(=O)CC[C@@H]12` [dehydroepiandrosterone]: the “effect on growth of Jurkat cells (in words)” value in the data set on Jurkat cells [1] (50 μM) is reported as “inhibited the growth”. Also, in the data set on human lymphoblast cells, the “effect on proliferation of lymphoblasts (in words)” value was “stimulated the proliferation”. `N[C@@H](CS(=O)O)C(=O)O` [sulfino-L-alanine, 3-sulfino-L-alanine]: the “effect on growth of Jurkat cells (in words)” value with Jurkat cells [1] (single metabolite, 100 μM, 72 hour treatment) was “did not inhibit the growth”. Moreover, the “effect on growth of OVCAR-3 cells (in words)” value with OVCAR-3 cells [5] is recorded as “did not inhibit the growth”. Regarding `CC(=O)C=O` [methylglyoxal], in the data set on Jurkat cells [2], the “anticancer activity … from the literature” value is reported as “active in Jurkat cells”. Turning to `COc1cc2c(cc1O)CC[C@@H]1[C@@H]2CC[C@]2(C)[C@@H](O)CC[C@@H]12` [2-methoxy-estradiol-17β], the “anticancer activity … from the literature” value with Jurkat cells [2] was “apoptotic agent”. Besides, the “anticancer activity in OVCAR-3 cells previously demonstrated” value in the data set with OVCAR-3 cells [3] was “anticancer activity”. Consider menaquinone, for which the “Jurkat cell growth as percentage of the untreated control” value with Jurkat cells [1] (setting [6]) was found to be 11.3%. In the data set on HL-60 cells, the “effect on HL-60 cells” value is “induce G0/G1 arrest, differentiation, and apoptosis”.

Regarding `NC(=O)c1cccnc1` [nicotinamide], the “anticancer activity … from the literature” value in the data set on Jurkat cells [2] is “active in Jurkat cells”. Regarding `CC1=C(/C=C/C(C)=C/C=C/C(C)=C/C(=O)O)C(C)(C)CCC1` [all-trans-retinoic acid], the “anticancer activity in OVCAR-3 cells previously demonstrated” value in the data set with OVCAR-3 cells [3] is “anticancer activity”.
